Patent US20260226048A1, “MULTI-CYCLIC IRAK AND FLT3 INHIBITING COMPOUNDS AND USES THEREOF” (CHILDREN'S HOSPITAL MEDICAL CENTER, priority 2023, published 2026)

What was measured:
[1] = biological target: T1, FLT3 ITD, D835V (Homo sapiens, UniProt P36888, D835V, form not given); experiment: DiscoverX KINOMEscan competition binding assay, FLT3 ITD, D835V; details: 11-point 3-fold dilution
T1 construct: fused on or other part: DNA tag for qPCR detection (kinase-tagged T7 phage, or made in HEK-293 cells and then tagged with DNA)
T1 sequence (P36888 1-993 D835V): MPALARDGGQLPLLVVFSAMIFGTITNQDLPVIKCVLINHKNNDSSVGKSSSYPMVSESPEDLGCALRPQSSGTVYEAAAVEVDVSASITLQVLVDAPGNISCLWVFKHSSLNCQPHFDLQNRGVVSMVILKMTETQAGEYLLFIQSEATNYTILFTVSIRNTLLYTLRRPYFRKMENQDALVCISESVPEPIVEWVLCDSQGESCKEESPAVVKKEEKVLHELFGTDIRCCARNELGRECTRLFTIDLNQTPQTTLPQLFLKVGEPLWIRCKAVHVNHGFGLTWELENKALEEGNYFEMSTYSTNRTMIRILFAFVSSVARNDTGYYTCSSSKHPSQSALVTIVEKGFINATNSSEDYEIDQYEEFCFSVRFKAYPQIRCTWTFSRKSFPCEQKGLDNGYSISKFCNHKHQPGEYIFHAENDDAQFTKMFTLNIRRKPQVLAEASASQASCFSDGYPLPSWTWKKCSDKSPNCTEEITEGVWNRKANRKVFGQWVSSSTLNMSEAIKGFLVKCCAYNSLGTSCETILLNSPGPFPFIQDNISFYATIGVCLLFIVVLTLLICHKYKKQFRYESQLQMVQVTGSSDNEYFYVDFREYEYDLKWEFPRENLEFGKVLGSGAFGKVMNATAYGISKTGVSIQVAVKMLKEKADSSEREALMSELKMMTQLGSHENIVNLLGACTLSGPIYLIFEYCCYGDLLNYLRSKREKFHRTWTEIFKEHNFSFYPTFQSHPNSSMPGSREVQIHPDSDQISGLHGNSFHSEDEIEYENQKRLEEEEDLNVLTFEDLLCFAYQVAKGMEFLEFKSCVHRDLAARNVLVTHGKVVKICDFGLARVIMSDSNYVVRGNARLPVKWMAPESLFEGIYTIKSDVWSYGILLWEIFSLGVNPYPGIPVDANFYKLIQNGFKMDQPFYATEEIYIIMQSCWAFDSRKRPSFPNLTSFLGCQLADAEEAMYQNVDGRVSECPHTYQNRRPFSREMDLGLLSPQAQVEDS
Excerpt: (§1) […]. […] As a result, the data report thermodynamic interaction affinities (Kd values), rather than IC50 values that are dependent on ATP concentrations. The assay uses a DNA-tagged version of the protein kinase, and an immobilized ligand bound to a solid support. Compounds that directly or indirectly prevent kinase binding to the immobilized ligand reduce the amount of kinase captured on the solid support, which is detected using an ultra-sensitive qPCR method. Affinity constants reported from the assay have been reported to be independent of the immobilized ligand used that is coupled to the solid support (See supplemental information in Fabian, M. A. et. al., (2005) Nat. Biotechnol. 23, 329-336; Wodicka, L. M. et. al., (2010) Chem. Biol. 17, 1241-1249.)
(§2) Kinase-tagged T7 phage strains were prepared in an E. coli host derived from the BL21 strain. E. coli were grown to log-phase and infected with T7 phage and incubated with shaking at 32° C. until lysis. The lysates were centrifuged and filtered to remove cell debris. The remaining kinases were produced in HEK-293 cells and subsequently tagged with DNA for qPCR detection. Streptavidin-coated magnetic beads were treated with biotinylated small molecule ligands for 30 minutes at room temperature to generate affinity resins for kinase assays. The liganded beads were blocked with excess biotin and washed with blocking buffer (SeaBlock (Pierce), 1% BSA, 0.05% Tween 20, 1 mM DTT) to remove unbound ligand and to reduce non-specific binding. […] Test compounds were prepared as 111× stocks in 100% DMSO. Kds were determined using an 11-point 3-fold compound dilution series with three DMSO control points. All compounds for Kd measurements are distributed by acoustic transfer (non-contact dispensing) in 100% DMSO. The compounds were then diluted directly into the assays such that the final concentration of DMSO was 0.9%. All reactions were performed in polypropylene 384-well plates. Each was a final volume of 0.02 mL. […] The kinase concentration in the eluates was measured by qPCR.
(§3) Binding constants (Kds) were calculated with a standard dose-response curve using the Hill equation. The Hill Slope was set to −1. Curves were fitted using a non-linear least square fit with the Levenberg-Marquardt algorithm.

[2] = biological target: T2, FLT3 Autoinh. (Homo sapiens, UniProt P36888); experiment: DiscoverX KINOMEscan competition binding assay, FLT3 Autoinh.; details: 11-point 3-fold dilution
T2 construct: purchased DiscoverX (KINOMEscan); host or cells: E. coli BL21-derived host (T7 phage) or HEK-293
T2 sequence (P36888 564-993 limits assumed): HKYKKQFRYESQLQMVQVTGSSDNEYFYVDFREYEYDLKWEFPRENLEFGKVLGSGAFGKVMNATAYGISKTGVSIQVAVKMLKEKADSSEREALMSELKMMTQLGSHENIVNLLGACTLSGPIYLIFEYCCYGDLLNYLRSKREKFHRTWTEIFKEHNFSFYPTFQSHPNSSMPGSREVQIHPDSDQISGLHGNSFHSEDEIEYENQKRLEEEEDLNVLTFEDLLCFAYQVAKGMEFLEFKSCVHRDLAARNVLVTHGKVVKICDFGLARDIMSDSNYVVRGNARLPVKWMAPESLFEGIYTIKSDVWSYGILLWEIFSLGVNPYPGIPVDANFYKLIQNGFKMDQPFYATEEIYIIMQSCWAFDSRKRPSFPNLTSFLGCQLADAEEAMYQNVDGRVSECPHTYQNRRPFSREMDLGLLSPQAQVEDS
Excerpt: as §1, §2, §3

| SMILES | Kd [1] [nM] | Kd [2] [nM] |
| --- | --- | --- |
| COc1cc2ncc(-c3nc(N[C@H]4CNCC[C@@H]4F)ncc3F)n2nc1C1COC1 [Compound 92a, 5-fluoro-N-((3S,4S)-4-fluoropiperidin-3-yl)-4-(7-methoxy-6-(oxetan-3-yl)imidazo[1,2-b]pyridazin-3-yl)pyrimidin-2-amine] | < 0.17 | 3.3 |
| CC(C)(O)c1cn2c(-c3nc(N[C@H]4CNCC[C@@H]4F)ncc3F)cnc2cn1 [Compound 100a, 2-(3-(5-fluoro-2-(((3S,4S)-4-fluoropiperidin-3-yl)amino)pyrimidin-4-yl)imidazo[1,2-a]pyrazin-6-yl)propan-2-ol] | 0.19 | 57 |
| CC(C)(O)c1ccc2ncc(-c3nc(N[C@H]4CNCC[C@@H]4F)ncc3F)n2c1 [Compound 46a, 2-(3-(5-fluoro-2-(((3S,4S)-4-fluoropiperidin-3-yl)amino)pyrimidin-4-yl)imidazo[1,2-a]pyridin-6-yl)propan-2-ol] | < 0.17 | 7.1 |
| COc1cc2ncc(-c3nc(N[C@H]4CNCC[C@@H]4F)ncc3F)n2nc1C1CC1 [Compound 1a, 4-(6-cyclopropyl-7-methoxyimidazo[1,2-b]pyridazin-3-yl)-5-fluoro-N-((3S,4S)-4-fluoropiperidin-3-yl)pyrimidin-2-amine] | < 0.17 | 2.2 |
| FC(F)COc1cc2ncc(-c3ccnc(N[C@H]4CNCC[C@@H]4F)n3)n2nc1C1CC1 [Compound 4a, 4-(6-cyclopropyl-7-(2,2-difluoroethoxy)imidazo[1,2-b]pyridazin-3-yl)-N-((3 S,4S)-4-fluoropiperidin-3-yl)pyrimidin-2-amine] | < 0.17 | 21 |
| COc1cc2ncc(-c3nc(N[C@H]4CNCC[C@@H]4F)ncc3F)n2nc1C(C)(C)O [Compound 45a, 2-(3-(5-fluoro-2-(((3S,4S)-4-fluoropiperidin-3-yl)amino)pyrimidin-4-yl)-7-methoxyimidazo[1,2-b]pyridazin-6-yl)propan-2-ol] | 0.23 | 11 |
| COc1cc2ncc(-c3nc(N[C@H]4CNCC[C@@H]4F)ncc3F)n2nc1N1CCCS1(=O)=O [Compound 112a, 2-(3-(5-fluoro-2-(((3S,4S)-4-fluoropiperidin-3-yl)amino)pyrimidin-4-yl)-7-methoxyimidazo[1,2-b]pyridazin-6-yl)isothiazolidine 1,1-dioxide] | < 0.17 | 2.7 |
